Results as given in patent US20230365558A1, “TETRAHYDROISOQUINOLINE DERIVATIVE AND USE THEREOF” (MEDSHINE DISCOVERY INC., priority 2020, published 2023).
Where two headings read alike, the source gives them in different places.

Assays:
[1] = system: Z-138 non-Hodgkin's lymphoma cells; test: In vitro anti-proliferation assay of Z-138 cells (CellTiter-Glo, 6 days); format: cell-based, human; details: read-out: IC50 (nM), in vitro anti-proliferative activity on Z-138 tumor cells
Method: The plate was incubated at 37° C., CO2 and 100% relative humidity for 6 days. Samples were processed using Promega CellTiter-Glo Luminescent Cell Viability Assay Kit (Promega-G7571) standard method, and the luminescent signal was detected on a TECAN Spark®10M plate reader. Raw data were used to calculate the inhibition rate of the test compounds using the following equation: […]
(§1) The inhibition rates were imported into Excel separately to calculate the inhibition rates of compounds at different concentrations, and then XLfit software was used to plot inhibition curves and calculate relevant parameters, including minimum inhibition rate, maximum inhibition rate and IC50.

PRMT5 enzyme = PRMT5 enzyme (Homo sapiens (Human), UniProt O14744); test: PRMT5 enzyme inhibitory activity assay (LANCE Ultra TR-FRET); format: biochemical
Sequence of PRMT5 enzyme (O14744 whole entry): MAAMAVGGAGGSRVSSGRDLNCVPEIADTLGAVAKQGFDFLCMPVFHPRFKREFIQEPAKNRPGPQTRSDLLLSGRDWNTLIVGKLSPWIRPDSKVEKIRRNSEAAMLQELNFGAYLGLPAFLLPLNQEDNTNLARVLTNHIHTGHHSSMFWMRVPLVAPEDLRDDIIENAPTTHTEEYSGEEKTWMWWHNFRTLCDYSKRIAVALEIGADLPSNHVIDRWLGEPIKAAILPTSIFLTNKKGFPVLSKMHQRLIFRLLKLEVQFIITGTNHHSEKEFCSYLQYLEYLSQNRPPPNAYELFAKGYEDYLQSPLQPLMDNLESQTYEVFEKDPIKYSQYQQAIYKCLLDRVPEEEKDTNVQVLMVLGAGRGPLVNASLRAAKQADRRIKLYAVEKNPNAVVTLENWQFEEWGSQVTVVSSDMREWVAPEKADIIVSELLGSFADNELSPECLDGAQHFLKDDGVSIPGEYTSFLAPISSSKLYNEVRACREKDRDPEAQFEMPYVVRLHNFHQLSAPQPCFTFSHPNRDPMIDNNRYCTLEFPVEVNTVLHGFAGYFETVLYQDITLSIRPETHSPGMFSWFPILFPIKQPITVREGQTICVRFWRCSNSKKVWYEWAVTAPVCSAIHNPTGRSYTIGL
Sequence of PRMT5 enzyme (Q9BQA1 whole entry partner): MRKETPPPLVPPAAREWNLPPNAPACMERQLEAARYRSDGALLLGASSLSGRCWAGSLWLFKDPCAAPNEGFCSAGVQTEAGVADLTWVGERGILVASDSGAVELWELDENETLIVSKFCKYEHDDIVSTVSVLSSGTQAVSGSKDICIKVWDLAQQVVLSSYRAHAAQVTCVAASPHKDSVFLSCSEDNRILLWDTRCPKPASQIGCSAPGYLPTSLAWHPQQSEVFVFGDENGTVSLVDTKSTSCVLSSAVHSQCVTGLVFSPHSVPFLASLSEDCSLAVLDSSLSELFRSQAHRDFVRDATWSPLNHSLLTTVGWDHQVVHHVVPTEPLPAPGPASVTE
Method: Experimental objective: To test the inhibitory effect of compounds on PRMT5 enzyme activity
Experimental materials: PRMT5 enzyme
The plate was incubated at 25° C. for 30 min, then added with substrate, and reacted at 25° C. for 90 min. After 90 min, the detection reagent was added to the 384-well plate using PerkinElmer LANCE Ultra TR-FRET standard method to combine with the enzyme-substrate reaction product. […] Raw data were used to calculate the inhibition rate of the test compounds using the following equation: […]
as §1

in vivo = details: for AUC / clearance / half-life / bioavailability: male, CD-1, mouse, in vivo; for Clearance rate CL / Concentration integral AUC / Half-life T1/2 / Bioavailability F: CD-1 mice
Method: Experimental objective: To study the pharmacokinetic parameters of the compounds in CD-1 mice
Animal experimental design: Male CD-1 mice (28.08 to 29.01 g, 6 to 7 weeks old), purchased from Shanghai Family Planning Research Institute, n=2/group, 4 mice in total; blood collection time points (h): 0.083 (intravenous injection only), 0.25 (intragastric administration only), 0.5, 1, 2, 4, 8, 10 and 24; compound dose by tail vein injection: 1 mg/kg; single dose by intragastric administration: 5 mg/kg; intravenous and intragastric administration vehicles: 20% N,N-dimethylacetamide aqueous solution, 20% hydroxypropyl-β-cyclodextrin aqueous solution, 5% DMSO/50% PEG400/45% water for injection or 10% Solutol/30% PEG400/60% water for injection. All animals had free access to water during the experiment, fasted overnight before administration, and resumed food supply 4 hours after administration. The entire animal experiment complied with the Institutional Animal Care and Use Committee (IACUC) animal welfare.
Sample collection and storage: After administration, approximately 0.03 mL of blood was collected from the saphenous vein of the mouse at each time point into a pre-frozen commercial EDTA-K2 tube, and placed on wet ice until centrifugation. Blood samples were centrifuged at 4° C., 3,200 g for 10 min. Plasma was collected separately, transferred to a pre-labeled 96-well plate, fast frozen on dry ice, and stored at −70±10° C. until LC-MS/MS analysis.
Pre-treatment of plasma samples: 3 μL of unknown, standard curve, QC, diluted QC and single and double blank samples were taken and placed in 1.5 mL tubes, and 60 μL of internal standard solution (internal standard: Labetalol 100 ng/mL acetonitrile solution, double blank with the same volume of pure acetonitrile) was added. The samples were vortexed for at least 15 seconds, and centrifuged at 4° C., 12,000 g for 15 min. 50 μL of the supernatant was taken and placed on a clean 96-well plate, and 200 μL of 70% acetonitrile was added. The plate was vortex at 800 rpm for 10 min, and centrifuged at 4° C., 3,220 g for 5 min. 2.0 μL of the supernatant was taken for LC-MS/MS analysis. 10-fold sample dilution procedure: 2 μL of the sample was added to 18 μL of blank matrix; 2-fold sample dilution procedure: 2 μL of the sample was added to 2 μL of blank matrix. Plasma was processed in the same manner as undiluted samples. The linear range was 4.00 to 6000 nM. Plasma concentrations would be analyzed with Triple Quad 6500 Plus, and pharmacokinetic parameters would be calculated with Phoenix WinNonlin 6.3.

[2] = injection administration (1 mg/kg)

For `CCOC1CC2(C1)Oc1ccc(C(=O)NC[C@H](O)CN3CCc4ccccc4C3)cc1NC2=O` (some centres unmarked) [Compound 21], which IC50 ([1]; Homo sapiens, Z-138, 144 h) is on record?
The IC50 was 18 nM.

Which IC50 ([1]; Homo sapiens, Z-138, 144 h) does the source give for `CC(C)N1CC2(C1)Oc1ccc(C(=O)NC[C@H](O)CN3CCc4ccccc4C3)cc1NC2=O` [Compound 9] here?
Its IC50 is 100 nM.

And the IC50 (PRMT5 enzyme)?
The IC50 was 36 nM.

What about the AUC (in vivo; 1 mg/kg) of the same compound?
The AUC was 0.336 µM·h.

And the clearance (in vivo; 1 mg/kg)?
Its clearance is 107 mL/min/kg.

What about the half-life (in vivo; 1 mg/kg) of the same compound?
The half-life was 129 min.

And the AUC (in vivo; po, 5 mg/kg)?
Its AUC is 0.168 µM·h.

And the bioavailability (in vivo; po, 5 mg/kg)?
Its bioavailability is 10%.

Which IC50 ([1]; Homo sapiens, Z-138, 144 h) does the source give for `CC(=O)N1CC2(C1)Oc1ccc(C(=O)NC[C@H](O)CN3CCc4ccccc4C3)cc1NC2=O` [Compound 11] here?
Its IC50 is 88 nM.

Which IC50 [1] does the source give for `O=C(NC[C@H](O)CN1CCc2ccccc2C1)c1ccc2c(c1)NC(=O)[C@@]1(CCOC1)O2` [Compound 35] here?
Its IC50 is 22 nM.

What about the IC50 (PRMT5 enzyme) of the same compound?
Its IC50 is 11 nM.

For `O=C(NC[C@H](O)CN1CCc2ccccc2C1)c1ccc2c(c1)NC(=O)C1(CC1)O2` [Compound 7], which IC50 [1] is on record?
Its IC50 is 73 nM.

And the “Clearance rate CL” value (in vivo; [2])?
Its value is 17.7 mL/min/kg.

And the “Concentration integral AUC” value (in vivo; [2])?
Its value is 2.313 µM·h.

And the “Half-life T1/2” value (in vivo; [2])?
Its value is 82.8 min.

And the “Bioavailability F” value (in vivo; oral administration (5 mg/kg))?
The value was 64.2%.

What about the “Concentration integral AUC” value (in vivo; oral administration (5 mg/kg)) of the same compound?
Its value is 7.419 µM·h.

For `O=C(NC[C@H](O)CN1CCc2ccccc2C1)c1cc2c(nn1)OC1(CC1)C(=O)N2` [Compound 16], which IC50 [1] is on record?
Its IC50 is 90 nM.

What does the source list for `O=C(NC[C@H](O)CN1CCc2ccccc2C1)c1ccc2c(c1)NC(=O)C1(CCCCC1)O2` [Compound 3]?
IC50 [1]: 78 nM; IC50 (PRMT5 enzyme): 18 nM; Clearance rate CL (in vivo; [2]): 78.1 mL/min/kg; Concentration integral AUC (in vivo; [2]): 0.474 µM·h; Half-life T1/2 (in vivo; [2]): 9.6 min; Bioavailability F (in vivo; oral administration (5 mg/kg)): 7.2%; Concentration integral AUC (in vivo; oral administration (5 mg/kg)): 0.171 µM·h

For `CCOC1CC2(C1)Oc1ccc(C(=O)NC[C@H](O)CN3CCc4ccccc4C3)cc1NC2=O` (some centres unmarked) [Compound 22], which IC50 [1] is on record?
The IC50 was 12 nM.

With `O=C(NC[C@H](O)CN1CCc2ccccc2C1)c1ccc2c(c1)NC(=O)C1(CCOCC1)O2` [Compound 4] as the compound, how does the IC50 (PRMT5 enzyme) read?
The IC50 was 22 nM.

And the “Clearance rate CL” value (in vivo; [2])?
The value was 63.3 mL/min/kg.

What about the “Concentration integral AUC” value (in vivo; [2]) of the same compound?
Its value is 0.583 µM·h.

What about the “Half-life T1/2” value (in vivo; [2]) of the same compound?
Its value is 16.2 min.

What about the “Bioavailability F” value (in vivo; oral administration (5 mg/kg)) of the same compound?
The value was 21.5%.

And the “Concentration integral AUC” value (in vivo; oral administration (5 mg/kg))?
The value was 0.626 µM·h.

What does the source list for `O=C(NC[C@H](O)CN1CCc2ccccc2C1)c1ccc2c(c1)NC(=O)C1(CCCC1)O2` [Compound 2]?
IC50 [1]: 24 nM; IC50 (PRMT5 enzyme): 128 nM; Clearance rate CL (in vivo; [2]): 39.7 mL/min/kg; Concentration integral AUC (in vivo; [2]): 0.967 µM·h; Half-life T1/2 (in vivo; [2]): 33.6 min; Bioavailability F (in vivo; oral administration (5 mg/kg)): 8.6%; Concentration integral AUC (in vivo; oral administration (5 mg/kg)): 0.417 µM·h

With `O=C(NC[C@H](O)CN1CCc2ccccc2C1)c1cnc2c(c1)NC(=O)C21CC1` [Compound 42] as the compound, how does the IC50 [1] read?
The IC50 was 53 nM.

Which results are given for `COc1cc2c(cc1C(=O)NC[C@H](O)CN1CCc3ccccc3C1)NC(=O)C1(CC1)O2` [Compound 47]?
IC50 [1]: 66.8 nM; IC50 (PRMT5 enzyme): 42 nM

Which IC50 ([1]; Homo sapiens, Z-138, 144 h) does the source give for `CS(=O)(=O)N1CC2(C1)Oc1ccc(C(=O)NC[C@H](O)CN3CCc4ccccc4C3)cc1NC2=O` [Compound 14] here?
The IC50 was 14 nM.

What does the source list for `O=C(NC[C@H](O)CN1CCc2ccccc2C1)c1ccc2c(c1)NC(=O)C1(CC(O)C1)O2` (some centres unmarked) [Compound 18]?
IC50 ([1]; Homo sapiens, Z-138, 144 h): 18 nM; AUC (in vivo; 1 mg/kg): 0.545 µM·h; clearance (in vivo; 1 mg/kg): 71.3 mL/min/kg; half-life (in vivo; 1 mg/kg): 24.6 min; AUC (in vivo; po, 5 mg/kg): 0.164 µM·h; bioavailability (in vivo; po, 5 mg/kg): 6.02%

With `COCCN1CC2(C1)Oc1ccc(C(=O)NC[C@H](O)CN3CCc4ccccc4C3)cc1NC2=O` [Compound 13] as the compound, how does the IC50 ([1]; Homo sapiens, Z-138, 144 h) read?
The IC50 was 47 nM.
